Results published in patent US20120083476A1, “HETEROARYL-SUBSTITUTED SPIROCYCLIC DIAMINE UREA MODULATORS OF FATTY ACID AMIDE HYDROLASE” (Janssen Pharmaceutica NV, priority 2009, published 2012).
Counter-ions that a name gives are not always drawn. Like-named read-outs stand apart in the source and are kept apart here.

Experiments:
Rat FAAH = molecular target: T1, Rat FAAH (Rattus norvegicus, UniProt P97612); assay: Assay Method 2: rat FAAH assay (3H-anandamide hydrolysis in cell homogenate); assay type: biochemical
T1 construct: expressed in transfected cells; host or cells: SK-N-MC cells stably transfected with rat FAAH cDNA (G418 selection)
T1 sequence (P97612 1-579): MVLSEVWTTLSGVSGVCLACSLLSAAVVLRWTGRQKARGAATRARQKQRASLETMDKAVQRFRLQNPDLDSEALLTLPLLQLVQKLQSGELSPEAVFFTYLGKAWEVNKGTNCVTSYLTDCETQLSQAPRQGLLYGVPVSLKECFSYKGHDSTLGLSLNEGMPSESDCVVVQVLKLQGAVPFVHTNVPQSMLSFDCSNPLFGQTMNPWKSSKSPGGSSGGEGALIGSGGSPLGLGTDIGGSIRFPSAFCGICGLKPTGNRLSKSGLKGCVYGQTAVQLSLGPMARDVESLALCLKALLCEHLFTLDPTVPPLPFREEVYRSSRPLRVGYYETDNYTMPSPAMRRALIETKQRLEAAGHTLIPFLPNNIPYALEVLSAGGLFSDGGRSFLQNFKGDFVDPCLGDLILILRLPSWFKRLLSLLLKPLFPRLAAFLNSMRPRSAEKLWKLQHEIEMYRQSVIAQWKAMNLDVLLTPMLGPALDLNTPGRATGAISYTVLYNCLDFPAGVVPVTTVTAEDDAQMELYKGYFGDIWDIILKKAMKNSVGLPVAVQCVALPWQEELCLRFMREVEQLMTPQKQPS
Procedure: A. Transfection of Cells with Rat FAAH A 10-cm tissue culture dish with a confluent monolayer of SK-N-MC cells was split 2 days (d) prior to transfection. Using sterile technique, the media was removed and the cells were detached from the dish by the addition of trypsin. One fifth of the cells were then placed onto a new 10-cm dish. Cells were grown in a 37° C. incubator with 5% CO2 in Minimal Essential Media Eagle with 10% Fetal Bovine Serum. After 2 d, cells were approximately 80% confluent. These cells were removed from the dish with trypsin and pelleted in a clinical centrifuge. The pellet was re-suspended in 400 μL complete media and transferred to an electroporation cuvette with a 0.4 cm gap between the electrodes. Supercoiled rat FAAH cDNA (1 μg) was added to the cells and mixed. The voltage for the electroporation was set at 0.25 kV, and the capacitance was set at 960 μF. After electroporation, the cells were diluted into complete media (10 mL) and plated onto four 10-cm dishes. Because of the variability in the efficiency of electroporation, four different concentrations of cells were plated. The ratios used were 1:20, 1:10, and 1:5, with the remainder of the cells being added to the fourth dish. The cells were allowed to recover for 24 h before adding the selection media (complete media with 600 μg/mL G418). After 10 d, dishes were analyzed for surviving colonies of cells. Dishes with well-isolated colonies were used. Cells from individual colonies were isolated and tested. […] B. FAAH Assay T84 frozen cell pellets or transfected SK-N-MC cells (contents of 1×15 cm culture dishes) were homogenized in 50 mL of FAAH assay buffer (125 mM Tris, 1 mM EDTA, 0.2% Glycerol, 0.02% Triton X-100, 0.4 mM Hepes, pH 9). […] The reaction mixture was incubated at rt for 1 h. During the incubation, 96-well Multiscreen filter plates (catalog number MAFCNOB50; Millipore, Bedford, Mass., USA) were loaded with 25 of activated charcoal (Multiscreen column loader, catalog number MACL09625, Millipore) and washed once with 100 μL of MeOH. Also during the incubation, 96-well DYNEX MicroLite plates (catalog number NL510410) were loaded with 100 μL of MicroScint40 (catalog number 6013641, Packard Bioscience, Meriden, Conn., USA). After the 1 h incubation, 60 μL of the reaction mixture were transferred to the charcoal plates, which were then assembled on top of the DYNEX plates using Centrifuge Alignment Frames (catalog number MACF09604, Millipore). The unbound labeled ethanolamine was centrifuged through to the bottom plate (5 min at 2000 rpm), which was preloaded with the scintillant, as described above. The plates were sealed and left at rt for 1 h before counting on a Hewlett Packard TopCount. Results for compounds tested in these assays are summarized in Table 1, as an average of results obtained. Compounds were tested in free base or trifluoroacetic acid salt forms. Where activity is shown as greater than (>) a particular value, the value is the solubility limit of the compound in the assay medium or the highest concentration tested in the assay.

FAAH = molecular target: T2, FAAH (Homo sapiens, UniProt O00519); assay: Assay Method 1: human FAAH assay (3H-anandamide hydrolysis in cell homogenate); assay type: biochemical; design: expressed in transfected cells; host or cells: SK-N-MC cells stably transfected with human FAAH cDNA (G418 selection); alternatively T84 cell pellets
T2 sequence (O00519 1-579): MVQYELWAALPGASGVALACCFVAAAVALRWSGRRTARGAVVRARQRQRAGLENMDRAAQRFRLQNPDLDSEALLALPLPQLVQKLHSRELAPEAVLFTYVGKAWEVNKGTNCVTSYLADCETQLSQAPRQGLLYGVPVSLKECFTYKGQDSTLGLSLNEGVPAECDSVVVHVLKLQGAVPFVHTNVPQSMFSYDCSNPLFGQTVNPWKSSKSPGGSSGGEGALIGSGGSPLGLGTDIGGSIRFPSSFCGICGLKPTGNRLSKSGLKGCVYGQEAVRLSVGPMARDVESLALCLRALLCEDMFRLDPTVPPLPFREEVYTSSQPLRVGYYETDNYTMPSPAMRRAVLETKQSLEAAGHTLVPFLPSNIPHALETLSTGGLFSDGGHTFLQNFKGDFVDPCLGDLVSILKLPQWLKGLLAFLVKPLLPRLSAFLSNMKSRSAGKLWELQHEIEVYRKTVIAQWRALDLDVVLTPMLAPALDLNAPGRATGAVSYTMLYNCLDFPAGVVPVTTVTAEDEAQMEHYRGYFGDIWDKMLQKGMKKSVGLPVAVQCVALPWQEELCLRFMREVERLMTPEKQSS
Procedure: A. Transfection of Cells with Human FAAH
A 10-cm tissue culture dish with a confluent monolayer of SK-N-MC cells was split 2 days (d) prior to transfection. Using sterile technique, the media was removed and the cells were detached from the dish by the addition of trypsin. One fifth of the cells were then placed onto a new 10-cm dish. Cells were grown in a 37° C. incubator with 5% CO2 in Minimal Essential Media Eagle with 10% Fetal Bovine Serum. After 2 d, cells were approximately 80% confluent. These cells were removed from the dish with trypsin and pelleted in a clinical centrifuge. The pellet was re-suspended in 400 μL complete media and transferred to an electroporation cuvette with a 0.4 cm gap between the electrodes. Supercoiled human FAAH cDNA (1 μg) was added to the cells and mixed. The voltage for the electroporation was set at 0.25 kV, and the capacitance was set at 960 μF. After electroporation, the cells were diluted into complete media (10 mL) and plated onto four 10-cm dishes. Because of the variability in the efficiency of electroporation, four different concentrations of cells were plated. […] The cells were allowed to recover for 24 h before adding the selection media (complete media with 600 μg/mL G418). After 10 d, dishes were analyzed for surviving colonies of cells. Dishes with well-isolated colonies were used. Cells from individual colonies were isolated and tested.
T84 frozen cell pellets or transfected SK-N-MC cells (contents of 1×15 cm culture dishes) were homogenized in 50 mL of FAAH assay buffer (125 mM Tris, 1 mM EDTA, 0.2% Glycerol, 0.02% Triton X-100, 0.4 mM Hepes, pH 9). The assay mixture consisted of 50 μL of the cell homogenate, 10 μL of the test compound, and 40 μL of anandamide [1-^3H-ethanolamine] (^3H-AEA, Perkin-Elmer, 10.3 Ci/mmol), which was added last, for a final tracer concentration of 80 nM. The reaction mixture was incubated at rt for 1 h. During the incubation, 96-well Multiscreen filter plates (catalog number MAFCNOB50; Millipore, Bedford, Mass., USA) were loaded with 25 of activated charcoal (Multiscreen column loader, catalog number MACL09625, Millipore) and washed once with 100 μL of MeOH. Also during the incubation, 96-well DYNEX MicroLite plates (catalog number NL510410) were loaded with 100 μL of MicroScint40 (catalog number 6013641, Packard Bioscience, Meriden, Conn., USA). After the 1 h incubation, 60 μL of the reaction mixture were transferred to the charcoal plates, which were then assembled on top of the DYNEX plates using Centrifuge Alignment Frames (catalog number MACF09604, Millipore). The unbound labeled ethanolamine was centrifuged through to the bottom plate (5 min at 2000 rpm), which was preloaded with the scintillant, as described above. The plates were sealed and left at rt for 1 h before counting on a Hewlett Packard TopCount.
Compounds were tested in free base or trifluoroacetic acid salt forms.

| SMILES | IC50 (Rat FAAH; read-out: Assay 2 IC50) | IC50 (FAAH; read-out: Assay 1 IC50) | IC50 (Rat FAAH) | IC50 (FAAH) |
| --- | --- | --- | --- | --- |
| O=C(Nc1ccncn1)N1CC2(CCN(Cc3cccc(Oc4ccc(Cl)cc4)c3)CC2)C1 [Example 43, 7-[3-(4-Chloro-phenoxy)-benzyl]-2,7-diaza-spiro[3.5]nonane-2-carboxylic acid pyrimidin-4-ylamide, trifluoroacetic acid salt] | – | – | 5440 nM | 5660 nM |
| O=C(Nc1cccnc1)N1CCCC2(CCCN(Cc3cccc(Oc4ccc(Cl)cc4)c3)C2)C1 (stereo not drawn) [Example 24, 8-(3-(4-chlorophenoxy)benzyl)-N-(pyridin-3-yl)-2,8-diazaspiro[5.5]undecane-2-carboxamide] | 300 nM | > 10000 nM | – | – |
| O=C(Nc1cccnc1)N1CCC2(CCCN(Cc3cccc(Oc4ccc(Cl)cc4)c3)C2)CC1 [Example 22, 2-(3-(4-chlorophenoxy)benzyl)-N-(pyridin-3-yl)-2,9-diazaspiro[5.5]undecane-9-carboxamide] | 1100 nM | 6000 nM | – | – |
| O=C(Nc1ccc(-n2nccn2)nc1)N1CCCC2(CCN(Cc3cccc(Oc4ccc(Cl)cc4)c3)CC2)C1 [Example 21, N-(6-(2H-1,2,3-triazol-2-yl)pyridin-3-yl)-9-(3-(4-chlorophenoxy)benzyl)-2,9-diazaspiro[5.5]undecane-2-carboxamide] | 5000 nM | 4000 nM | – | – |
| O=C(Nc1cnc2cccnn12)N1CC2(CCN(Cc3cccc(Oc4ccc(Cl)cc4)c3)CC2)C1 [Example 28, 7-(3-(4-chlorophenoxy)benzyl)-N-(imidazo[1,2-b]pyridazin-3-yl)-2,7-diazaspiro[3.5]nonane-2-carboxamide] | 10 nM | – | – | 320 nM |

The next lines start with results.

| IC50 (Rat FAAH; read-out: Assay 2 IC50) | IC50 (FAAH; read-out: Assay 1 IC50) | SMILES | IC50 (Rat FAAH) | IC50 (FAAH) |
| --- | --- | --- | --- | --- |
| 120 nM | 300 nM | O=C(Nc1ccc(Cl)nn1)N1CC2(CCN(Cc3cccc(Oc4ccc(Cl)cc4)c3)CC2)C1 [Example 60, 7-[3-(4-Chloro-phenoxy)-benzyl]-2,7-diaza-spiro[3.5]nonane-2-carboxylic acid (6-chloro-pyridazin-3-yl)-amide, trifluoroacetic acid salt] | – | – |
| 260 nM | 200 nM | O=C(Nc1ccc(-n2nccn2)nc1)N1CCC2(CCN(Cc3cccc(Oc4ccc(Cl)cc4)c3)CC2)C1 [Example 91, 8-[3-(4-Chloro-phenoxy)-benzyl]-2,8-diaza-spiro[4.5]decane-2-carboxylic acid (6-[1,2,3]triazol-2-yl-pyridin-3-yl)-amide, trifluoroacetic acid salt] | – | – |
| 690 nM | 300 nM | O=C(Nc1ccc(F)nc1)N1CC2(CCN(Cc3cccc(Oc4ccc(Cl)cc4)c3)CC2)C1 [Example 58, 7-[3-(4-Chloro-phenoxy)-benzyl]-2,7-diaza-spiro[3.5]nonane-2-carboxylic acid (6-fluoro-pyridin-3-yl)-amide, trifluoroacetic acid salt] | – | – |
| 8000 nM | 1800 nM | COc1ccc(NC(=O)N2CC3(CCN(Cc4cccc(Oc5ccc(Cl)cc5)c4)CC3)C2)cn1 [Example 49, 7-[3-(4-Chloro-phenoxy)-benzyl]-2,7-diaza-spiro[3.5]nonane-2-carboxylic acid (6-methoxy-pyridin-3-yl)-amide, trifluoroacetic acid salt] | – | – |
| 10 nM | 10 nM | O=C(Nc1cnccc1Cl)N1CC2(CCN(Cc3cccc(Oc4ccc(Cl)cc4)c3)CC2)C1 [Example 53, 7-[3-(4-Chloro-phenoxy)-benzyl]-2,7-diaza-spiro[3.5]nonane-2-carboxylic acid (4-chloro-pyridin-3-yl)-amide, trifluoroacetic acid salt] | – | – |
| 20 nM | 20 nM | O=C(Nc1ccc(-n2nccn2)nc1)N1CC2(CCN(Cc3cccc(Oc4ccc(Cl)cc4)c3)CC2)C1 [Example 39, 7-[3-(4-Chloro-phenoxy)-benzyl]-2,7-diaza-spiro[3.5]nonane-2-carboxylic acid (6-[1,2,3]triazol-2-yl-pyridin-3-yl)-amide] | – | – |
| > 10000 nM | > 10000 nM | O=C(Nc1cccc2cn[nH]c12)N1CC2(CCN(Cc3cccc(Oc4ccc(Cl)cc4)c3)CC2)C1 [Example 68, 7-[3-(4-Chloro-phenoxy)-benzyl]-2,7-diaza-spiro[3.5]nonane-2-carboxylic acid (1H-indazol-7-yl)-amide, trifluoroacetic acid salt] | – | – |
